Experimental data: paper PMC7180948, “New Insights into 4-Anilinoquinazolines as Inhibitors of Cardiac Troponin I–Interacting Kinase (TNNi3K)” (Molecules, 2020)

Legend:
Assay in all cases: biochemical
Parameters in all cases: KINOMEscan competition binding panel (Eurofins DiscoverX), single concentration, % inhibition
Conditions in all cases: read-out: 7 at 1 µM % inhibition
VEGFR2 = biological target: T1, VEGFR2 (Homo sapiens, UniProt P35968)
T1 construct: gene KDR
In short: (§1)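 Values come from single-concentration (1 µM) profiling in the Eurofins DiscoverX KINOMEscan competition-binding platform, which covers over 400 kinases.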

[1] = biological target: T2, ABL1(F317L)-phosphorylated (Homo sapiens, UniProt P00519, F317L)
T2 construct: phosphorylated
In short: as §1

NEK10 = NEK10 (Homo sapiens, UniProt Q6ZWH5)
In short: as §1

PIP5K2B = biological target: T3, PIP5K2B (Homo sapiens, UniProt P78356)
T3 construct: gene PIP4K2B
In short: as §1

MKK7 = biological target: T4, MKK7 (Homo sapiens, UniProt O14733)
T4 construct: gene MAP2K7
In short: as §1

YSK4 = biological target: T5, YSK4 (Homo sapiens, UniProt Q56UN5)
T5 construct: gene MAP3K19
In short: as §1

MARK4 = MARK4 (Homo sapiens, UniProt Q96L34)
In short: as §1

[2] = biological target: EGFR(L747-E749del, A750P) (Homo sapiens, UniProt P00533, A750P/DEL747-749)
In short: as §1

LRRK2(G2019S) = LRRK2(G2019S) (Homo sapiens, UniProt Q5S007, G2019S)
In short: as §1

ALK = ALK (Homo sapiens, UniProt Q9UM73)
In short: as §1

ERK5 = biological target: T6, ERK5 (Homo sapiens, UniProt Q13164)
T6 construct: gene MAPK7
In short: as §1

TLK2 = TLK2 (Homo sapiens, UniProt Q86UE8)
In short: as §1

EGFR(L858R,T790M) = EGFR(L858R,T790M) (Homo sapiens, UniProt P00533, L858R/T790M)
In short: as §1

SRMS = SRMS (Homo sapiens, UniProt Q9H3Y6)
In short: as §1

YANK3 = biological target: T7, YANK3 (Homo sapiens, UniProt Q86UX6)
T7 construct: gene STK32C
In short: as §1

PRKCD = PRKCD (Homo sapiens, UniProt Q05655)
In short: as §1

CASK = CASK (Homo sapiens, UniProt O14936)
In short: as §1

CDC2L2 = biological target: T8, CDC2L2 (Homo sapiens, UniProt Q9UQ88)
T8 construct: gene CDK11A
In short: as §1

p38-beta = biological target: T9, p38-beta (Homo sapiens, UniProt Q15759)
T9 construct: gene MAPK11
In short: as §1

NEK11 = NEK11 (Homo sapiens, UniProt Q8NG66)
In short: as §1

FGFR3(G697C) = FGFR3(G697C) (Homo sapiens, UniProt P22607, G697C)
In short: as §1

LIMK2 = LIMK2 (Homo sapiens, UniProt P53671)
In short: as §1

CSNK1G1 = CSNK1G1 (Homo sapiens, UniProt Q9HCP0)
In short: as §1

MARK2 = MARK2 (Homo sapiens, UniProt Q7KZI7)
In short: as §1

T9 sequence (Q15759 whole entry): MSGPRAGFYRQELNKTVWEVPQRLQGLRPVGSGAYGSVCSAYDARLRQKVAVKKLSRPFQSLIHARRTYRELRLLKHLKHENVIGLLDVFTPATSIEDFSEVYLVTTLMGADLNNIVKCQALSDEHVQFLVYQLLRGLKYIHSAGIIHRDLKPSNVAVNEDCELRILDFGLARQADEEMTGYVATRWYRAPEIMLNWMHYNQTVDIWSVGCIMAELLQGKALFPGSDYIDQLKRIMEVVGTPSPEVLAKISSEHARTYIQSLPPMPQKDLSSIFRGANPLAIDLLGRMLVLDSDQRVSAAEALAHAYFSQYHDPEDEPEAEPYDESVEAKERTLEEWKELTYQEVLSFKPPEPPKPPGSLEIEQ
CASK, sequence (O14936 whole entry): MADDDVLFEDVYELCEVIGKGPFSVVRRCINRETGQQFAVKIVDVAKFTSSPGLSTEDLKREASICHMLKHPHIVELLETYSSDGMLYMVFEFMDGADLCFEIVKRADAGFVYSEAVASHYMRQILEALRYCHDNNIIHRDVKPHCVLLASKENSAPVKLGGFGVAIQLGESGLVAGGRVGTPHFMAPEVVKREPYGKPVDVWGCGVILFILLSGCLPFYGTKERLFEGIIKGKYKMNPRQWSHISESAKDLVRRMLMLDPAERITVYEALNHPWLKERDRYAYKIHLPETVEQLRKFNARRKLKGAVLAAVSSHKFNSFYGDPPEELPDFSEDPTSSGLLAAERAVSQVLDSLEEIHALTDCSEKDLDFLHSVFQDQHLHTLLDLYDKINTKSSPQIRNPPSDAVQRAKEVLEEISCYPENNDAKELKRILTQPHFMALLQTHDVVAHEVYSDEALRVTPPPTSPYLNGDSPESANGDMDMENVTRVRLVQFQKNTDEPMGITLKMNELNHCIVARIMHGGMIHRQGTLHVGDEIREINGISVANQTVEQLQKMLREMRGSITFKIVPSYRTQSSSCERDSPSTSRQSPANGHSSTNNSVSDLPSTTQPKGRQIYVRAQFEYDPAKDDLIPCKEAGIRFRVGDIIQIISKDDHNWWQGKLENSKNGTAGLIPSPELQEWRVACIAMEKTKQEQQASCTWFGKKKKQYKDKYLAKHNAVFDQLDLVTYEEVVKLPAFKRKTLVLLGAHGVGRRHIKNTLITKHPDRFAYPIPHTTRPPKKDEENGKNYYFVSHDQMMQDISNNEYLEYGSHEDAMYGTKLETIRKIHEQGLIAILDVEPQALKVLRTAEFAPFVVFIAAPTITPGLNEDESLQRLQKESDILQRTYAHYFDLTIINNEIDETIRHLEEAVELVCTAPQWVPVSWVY
LRRK2(G2019S), sequence (Q5S007 whole entry G2019S): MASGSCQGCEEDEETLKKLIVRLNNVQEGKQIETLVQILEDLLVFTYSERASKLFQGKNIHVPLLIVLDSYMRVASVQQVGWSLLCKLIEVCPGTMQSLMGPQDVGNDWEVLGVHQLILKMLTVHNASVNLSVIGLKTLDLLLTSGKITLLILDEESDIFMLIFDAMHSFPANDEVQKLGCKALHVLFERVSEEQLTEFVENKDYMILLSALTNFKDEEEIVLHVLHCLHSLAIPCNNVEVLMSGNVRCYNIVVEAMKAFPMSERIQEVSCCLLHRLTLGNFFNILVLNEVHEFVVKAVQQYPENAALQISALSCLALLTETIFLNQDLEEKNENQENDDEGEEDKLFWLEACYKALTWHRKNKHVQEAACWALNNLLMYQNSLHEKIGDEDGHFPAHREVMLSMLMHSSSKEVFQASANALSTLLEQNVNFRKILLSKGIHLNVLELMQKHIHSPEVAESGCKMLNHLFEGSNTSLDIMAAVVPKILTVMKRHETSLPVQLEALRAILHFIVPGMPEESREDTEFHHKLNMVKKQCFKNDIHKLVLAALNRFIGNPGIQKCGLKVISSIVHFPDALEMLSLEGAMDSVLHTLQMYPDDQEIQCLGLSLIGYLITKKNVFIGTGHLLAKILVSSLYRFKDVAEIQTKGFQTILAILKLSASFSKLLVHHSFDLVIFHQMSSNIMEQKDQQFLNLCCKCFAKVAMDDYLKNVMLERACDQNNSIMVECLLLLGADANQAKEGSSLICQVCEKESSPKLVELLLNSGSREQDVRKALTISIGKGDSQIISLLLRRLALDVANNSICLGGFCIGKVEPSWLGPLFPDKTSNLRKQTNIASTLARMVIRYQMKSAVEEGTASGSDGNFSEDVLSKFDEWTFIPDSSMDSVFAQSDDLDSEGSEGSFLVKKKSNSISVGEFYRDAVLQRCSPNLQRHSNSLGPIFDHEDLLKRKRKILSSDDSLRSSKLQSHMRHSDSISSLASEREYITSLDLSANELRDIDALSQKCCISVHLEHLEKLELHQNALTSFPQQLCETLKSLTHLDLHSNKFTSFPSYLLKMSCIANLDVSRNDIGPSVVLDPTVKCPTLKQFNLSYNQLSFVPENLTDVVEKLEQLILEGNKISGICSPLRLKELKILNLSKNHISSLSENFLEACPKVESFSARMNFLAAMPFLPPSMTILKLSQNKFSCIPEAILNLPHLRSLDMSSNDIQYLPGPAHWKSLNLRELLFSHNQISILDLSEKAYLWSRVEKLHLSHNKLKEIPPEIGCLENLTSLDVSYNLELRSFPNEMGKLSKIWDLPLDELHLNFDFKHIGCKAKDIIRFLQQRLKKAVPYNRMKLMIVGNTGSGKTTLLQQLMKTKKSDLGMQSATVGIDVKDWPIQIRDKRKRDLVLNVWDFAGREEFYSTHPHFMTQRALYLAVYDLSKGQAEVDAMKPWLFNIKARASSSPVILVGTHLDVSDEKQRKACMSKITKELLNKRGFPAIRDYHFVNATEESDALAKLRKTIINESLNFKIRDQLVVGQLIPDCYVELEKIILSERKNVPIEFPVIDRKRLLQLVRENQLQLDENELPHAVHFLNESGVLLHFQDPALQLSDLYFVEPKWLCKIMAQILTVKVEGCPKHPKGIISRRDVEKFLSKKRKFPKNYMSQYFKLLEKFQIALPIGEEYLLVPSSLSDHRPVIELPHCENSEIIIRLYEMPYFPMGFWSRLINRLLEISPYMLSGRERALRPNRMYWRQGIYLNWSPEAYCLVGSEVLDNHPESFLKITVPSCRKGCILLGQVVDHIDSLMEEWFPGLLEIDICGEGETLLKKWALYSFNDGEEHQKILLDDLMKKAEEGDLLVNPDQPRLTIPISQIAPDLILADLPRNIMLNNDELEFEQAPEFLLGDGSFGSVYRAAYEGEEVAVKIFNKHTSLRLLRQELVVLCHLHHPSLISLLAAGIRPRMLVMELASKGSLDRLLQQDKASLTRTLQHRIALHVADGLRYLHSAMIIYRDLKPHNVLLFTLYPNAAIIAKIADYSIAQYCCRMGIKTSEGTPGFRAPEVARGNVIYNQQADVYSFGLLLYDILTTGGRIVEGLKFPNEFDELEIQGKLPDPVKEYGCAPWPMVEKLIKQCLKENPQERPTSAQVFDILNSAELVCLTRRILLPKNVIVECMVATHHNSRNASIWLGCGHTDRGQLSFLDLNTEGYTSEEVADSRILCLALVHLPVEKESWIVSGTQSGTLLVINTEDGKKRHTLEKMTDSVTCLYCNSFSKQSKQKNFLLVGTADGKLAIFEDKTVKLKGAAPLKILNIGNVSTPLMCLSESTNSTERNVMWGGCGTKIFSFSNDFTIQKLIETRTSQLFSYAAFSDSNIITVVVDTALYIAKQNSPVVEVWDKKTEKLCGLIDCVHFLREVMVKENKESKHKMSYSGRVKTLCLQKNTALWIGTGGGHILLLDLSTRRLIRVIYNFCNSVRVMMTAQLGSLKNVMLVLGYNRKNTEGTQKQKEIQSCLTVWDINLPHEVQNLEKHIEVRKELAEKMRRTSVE
LIMK2, sequence (P53671 whole entry): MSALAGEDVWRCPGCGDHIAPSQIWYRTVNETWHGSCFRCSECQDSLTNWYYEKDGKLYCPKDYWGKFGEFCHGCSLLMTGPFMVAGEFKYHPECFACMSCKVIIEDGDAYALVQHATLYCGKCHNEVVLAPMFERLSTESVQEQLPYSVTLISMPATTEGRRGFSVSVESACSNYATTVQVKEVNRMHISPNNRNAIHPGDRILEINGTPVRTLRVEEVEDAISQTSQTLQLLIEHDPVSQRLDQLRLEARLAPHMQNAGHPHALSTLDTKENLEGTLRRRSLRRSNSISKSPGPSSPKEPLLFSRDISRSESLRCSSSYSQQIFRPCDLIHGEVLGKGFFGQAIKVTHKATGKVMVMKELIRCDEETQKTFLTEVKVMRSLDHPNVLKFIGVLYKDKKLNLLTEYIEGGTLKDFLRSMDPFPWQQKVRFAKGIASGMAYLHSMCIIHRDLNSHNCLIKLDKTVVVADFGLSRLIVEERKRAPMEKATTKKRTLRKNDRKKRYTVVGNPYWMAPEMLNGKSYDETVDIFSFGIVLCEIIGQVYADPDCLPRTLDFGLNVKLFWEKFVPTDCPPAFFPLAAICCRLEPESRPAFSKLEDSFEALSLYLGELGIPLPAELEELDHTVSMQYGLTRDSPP
T7 sequence (Q86UX6 whole entry): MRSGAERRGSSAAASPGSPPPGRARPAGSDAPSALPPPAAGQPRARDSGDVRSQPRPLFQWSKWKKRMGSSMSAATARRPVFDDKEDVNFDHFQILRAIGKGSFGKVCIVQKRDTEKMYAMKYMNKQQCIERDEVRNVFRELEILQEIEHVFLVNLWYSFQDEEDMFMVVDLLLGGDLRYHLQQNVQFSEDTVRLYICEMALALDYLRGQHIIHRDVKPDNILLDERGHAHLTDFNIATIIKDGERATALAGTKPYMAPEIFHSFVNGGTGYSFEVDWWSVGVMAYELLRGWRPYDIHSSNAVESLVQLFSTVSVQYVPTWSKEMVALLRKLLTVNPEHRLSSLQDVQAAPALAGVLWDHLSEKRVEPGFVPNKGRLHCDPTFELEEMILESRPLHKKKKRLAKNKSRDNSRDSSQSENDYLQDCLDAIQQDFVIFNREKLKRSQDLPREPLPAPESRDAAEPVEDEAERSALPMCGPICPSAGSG

CNS(=O)(=O)c1ccc(N(C)C)c(Nc2ncnc3cc(OC)c(OC)cc23)c1 [compound 7, 3-((6,7-dimethoxyquinazolin-4-yl)amino)-4-(dimethylamino)-N-methylbenzenesulfonamide]
inhibition at 1 µM (VEGFR2): 26%
inhibition at 1 µM [1]: 0%
inhibition at 1 µM (NEK10): 0%
inhibition at 1 µM (PIP5K2B): 0%
inhibition at 1 µM (MKK7): 42%
inhibition at 1 µM (YSK4): 72%
inhibition at 1 µM (MARK4): 2%
inhibition at 1 µM [2]: 0%
inhibition at 1 µM (LRRK2(G2019S)): 23%
inhibition at 1 µM (ALK): 10%
inhibition at 1 µM (ERK5): 6%
inhibition at 1 µM (TLK2): 0%
inhibition at 1 µM (EGFR(L858R,T790M)): 7%
inhibition at 1 µM (SRMS): 41%
inhibition at 1 µM (YANK3): 0%
inhibition at 1 µM (PRKCD): 24%
inhibition at 1 µM (CASK): 0%
inhibition at 1 µM (CDC2L2): 0%
inhibition at 1 µM (p38-beta): 0%
inhibition at 1 µM (NEK11): 0%
inhibition at 1 µM (FGFR3(G697C)): 0%
inhibition at 1 µM (LIMK2): 0%
inhibition at 1 µM (CSNK1G1): 0%
inhibition at 1 µM (MARK2): 0%
